From US20170176440A1, “METHODS AND COMPOSITIONS FOR EVALUATING BREAST CANCER PATIENTS” (THE BOARD OF REGENTS OF THE UNIVERSITY OF TEXAS SYSTEM, priority 2014, published 2017)

T1: Flag-ERβ (WT)
T1 chain: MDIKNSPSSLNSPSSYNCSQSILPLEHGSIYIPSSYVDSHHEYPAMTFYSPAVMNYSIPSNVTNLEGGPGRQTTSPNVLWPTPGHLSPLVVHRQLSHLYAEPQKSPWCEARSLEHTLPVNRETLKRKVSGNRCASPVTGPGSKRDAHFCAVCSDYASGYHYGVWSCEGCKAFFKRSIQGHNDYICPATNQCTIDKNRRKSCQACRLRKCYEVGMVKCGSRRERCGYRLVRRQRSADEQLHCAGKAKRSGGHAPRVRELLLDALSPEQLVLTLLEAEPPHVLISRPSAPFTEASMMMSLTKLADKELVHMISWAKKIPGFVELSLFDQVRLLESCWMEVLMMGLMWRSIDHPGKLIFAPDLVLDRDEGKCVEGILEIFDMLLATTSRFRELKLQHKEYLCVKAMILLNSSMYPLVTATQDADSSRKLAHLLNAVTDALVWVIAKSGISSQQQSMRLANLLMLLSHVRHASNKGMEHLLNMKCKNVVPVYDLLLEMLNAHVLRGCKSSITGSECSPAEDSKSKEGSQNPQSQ

T2: ERβ pY36-containing peptide SIYIPSS(pY)VDSHHE
T2 chain: SIYIPSSYVDSHHE


Experiments:
[1] = tested on: pY36 of ERβ in MDA-MB-231 cells; assay: pY36 of endogenous ERβ in MDA-MB-231 cells treated with ERβ agonists; assay type: cell-based; conditions: agonists 10 nM, 2 hr (FIG. 19C)
[2] = two completed and published clinical trials; cited from earlier work
[3] = tested on: p300 recruitment to ERβ target promoters MDA7 and MSMB; assay: p300 ChIP at ERβ target promoters in Hs578T cells; assay type: cell-based; conditions: WT-ERβ-expressing Hs578T cells; E2 10 nM
Procedure: For ChIP experiments in the ERβ-inducible Hs578T cells, 100 ng/ml doxcycline was added for 24 hr. […] Cells were cross-linked with 1% formaldehyde for 10 min, treated with glycine at a final concentration of 0.125 M for 5 min at room temperature, and lysed in lysis buffer (5 mM HEPES pH 9.0, 85 mM KCl, 0.5% Triton X-100) for 15 min on ice. Nuclei were resuspended in nuclei lysis buffer (50 mM Tris-HCl pH 8.0, 10 mM EDTA, 1% SDS), and the cross-linked DNA was sonicated for 10 min (with a 30 s on/off cycle) using a Bioruptor sonicator (Diagenode). The supernatant was used for ChIP as previously described (Ding et al., Mol Cell., 2008, (31)347-59).

[4] = target: T1, Flag-ERβ (WT)
[5] = target: T2, ERβ pY36-containing peptide …
[6] = target: T3, p300 (UniProt Q09472 2-2414, limits assumed); assay: co-IP of Flag-ERβ with endogenous p300 in HEK293T cells
T3 construct: also called endogenous p300
T3 sequence (Q09472 2-2414 limits assumed): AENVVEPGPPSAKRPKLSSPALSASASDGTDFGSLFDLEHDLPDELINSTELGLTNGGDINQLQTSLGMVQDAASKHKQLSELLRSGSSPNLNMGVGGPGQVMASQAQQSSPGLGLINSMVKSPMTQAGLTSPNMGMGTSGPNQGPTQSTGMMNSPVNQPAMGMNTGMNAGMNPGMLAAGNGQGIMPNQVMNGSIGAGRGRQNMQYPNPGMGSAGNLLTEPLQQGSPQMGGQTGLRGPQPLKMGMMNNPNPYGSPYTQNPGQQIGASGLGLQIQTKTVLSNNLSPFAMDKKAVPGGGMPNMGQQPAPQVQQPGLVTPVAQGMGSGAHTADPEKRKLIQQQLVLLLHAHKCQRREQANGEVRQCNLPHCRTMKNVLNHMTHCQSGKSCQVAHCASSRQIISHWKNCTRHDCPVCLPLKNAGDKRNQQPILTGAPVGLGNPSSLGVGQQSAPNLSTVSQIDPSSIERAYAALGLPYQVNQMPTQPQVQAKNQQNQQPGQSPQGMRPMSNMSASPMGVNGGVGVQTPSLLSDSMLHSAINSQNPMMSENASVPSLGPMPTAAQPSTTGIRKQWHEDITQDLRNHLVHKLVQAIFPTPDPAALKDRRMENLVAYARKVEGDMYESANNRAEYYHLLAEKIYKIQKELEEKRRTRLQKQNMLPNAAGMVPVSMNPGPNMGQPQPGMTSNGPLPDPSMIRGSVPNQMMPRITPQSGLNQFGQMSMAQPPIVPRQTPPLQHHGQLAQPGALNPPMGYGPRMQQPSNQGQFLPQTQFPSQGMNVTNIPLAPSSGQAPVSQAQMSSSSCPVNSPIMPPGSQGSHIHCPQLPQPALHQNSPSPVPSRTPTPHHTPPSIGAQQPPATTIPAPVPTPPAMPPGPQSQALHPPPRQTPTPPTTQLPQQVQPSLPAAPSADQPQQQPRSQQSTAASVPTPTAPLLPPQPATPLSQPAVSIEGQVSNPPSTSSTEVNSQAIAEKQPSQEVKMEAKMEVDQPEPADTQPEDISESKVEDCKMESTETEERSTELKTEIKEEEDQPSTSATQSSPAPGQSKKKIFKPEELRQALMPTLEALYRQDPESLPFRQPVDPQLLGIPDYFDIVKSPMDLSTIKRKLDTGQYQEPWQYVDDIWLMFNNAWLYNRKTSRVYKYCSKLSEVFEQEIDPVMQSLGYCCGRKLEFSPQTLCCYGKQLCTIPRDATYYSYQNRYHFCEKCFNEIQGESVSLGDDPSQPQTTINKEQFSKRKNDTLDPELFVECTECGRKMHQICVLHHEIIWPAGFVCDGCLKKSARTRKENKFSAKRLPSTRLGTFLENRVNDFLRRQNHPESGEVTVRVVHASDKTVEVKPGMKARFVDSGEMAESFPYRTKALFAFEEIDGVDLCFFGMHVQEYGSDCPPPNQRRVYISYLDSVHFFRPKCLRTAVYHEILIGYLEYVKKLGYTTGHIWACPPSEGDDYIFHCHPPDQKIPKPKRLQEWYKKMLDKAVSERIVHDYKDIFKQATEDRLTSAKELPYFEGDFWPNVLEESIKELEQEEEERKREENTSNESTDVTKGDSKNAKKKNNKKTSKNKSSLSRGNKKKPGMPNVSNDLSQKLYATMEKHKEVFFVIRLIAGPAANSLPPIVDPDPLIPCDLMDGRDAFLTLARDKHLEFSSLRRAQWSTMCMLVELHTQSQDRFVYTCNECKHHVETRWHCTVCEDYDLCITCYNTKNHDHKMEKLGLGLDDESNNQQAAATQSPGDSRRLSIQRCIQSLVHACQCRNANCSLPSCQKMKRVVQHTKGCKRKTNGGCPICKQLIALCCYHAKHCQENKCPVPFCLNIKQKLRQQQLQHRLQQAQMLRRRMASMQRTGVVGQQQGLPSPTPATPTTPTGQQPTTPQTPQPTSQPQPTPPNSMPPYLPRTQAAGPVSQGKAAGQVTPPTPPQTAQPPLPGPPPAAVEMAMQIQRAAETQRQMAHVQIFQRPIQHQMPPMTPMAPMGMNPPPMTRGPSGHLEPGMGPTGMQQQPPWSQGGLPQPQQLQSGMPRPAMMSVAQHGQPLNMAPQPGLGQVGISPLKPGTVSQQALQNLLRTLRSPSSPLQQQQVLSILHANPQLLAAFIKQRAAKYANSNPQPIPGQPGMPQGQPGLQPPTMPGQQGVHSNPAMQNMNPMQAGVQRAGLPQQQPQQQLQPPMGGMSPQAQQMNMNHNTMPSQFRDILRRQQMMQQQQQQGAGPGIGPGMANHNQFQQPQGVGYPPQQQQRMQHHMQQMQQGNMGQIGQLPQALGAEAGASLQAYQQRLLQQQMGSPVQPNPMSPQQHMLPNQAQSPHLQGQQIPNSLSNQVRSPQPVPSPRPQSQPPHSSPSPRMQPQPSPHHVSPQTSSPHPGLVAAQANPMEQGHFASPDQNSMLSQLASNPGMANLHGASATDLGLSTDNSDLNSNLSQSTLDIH

| binding result [6] | Molecule | ERβ phosphorylation (pY36) [1] | also measured |
| --- | --- | --- | --- |
| – | Oc1ccc([C@H]2COc3cc(O)ccc3C2)cc1 [S-equol] | enhanced | safety and drug tolerance [2]: has been demonstrated |
| – | N#CC(Cc1ccc(O)cc1)c1ccc(O)cc1 (stereo not drawn) [DPN, diarylpropionitrile] | enhanced | – |
| – | C[C@]12CC[C@@H]3c4ccc(O)cc4CC[C@H]3[C@@H]1CC[C@@H]2O [E2, 17-β-estradiol] | enhanced | recruitment of p300 to the ERβ target promoters [3]: stimulated cyclic recruitment of p300 |
| – | GST-EYA2 (protein) MVELVISPSLTVNSDCLDKLKFNRADAAVWTLSDRQGITKSAPLRVSQLFSRSCPRVLPRQPSTAMAAYGQTQYSAGIQQATPYTAYPPPAQAYGIPSYSIKTEDSLNHSPGQSGFLSYGSSFSTSPTGQSPYTYQMHGTTGFYQGGNGLGNAAGFGSVHQDYPSYPGFPQSQYPQYYGSSYNPPYVPASSICPSPLSTSTYVLQEASHNVPNQSSESLAGEYNTHNGPSTPAKEGDTDRPHRASDGKLRGRSKRSSDPSPAGDNEIERVFVWDLDETIIIFHSLLTGTFASRYGKDTTTSVRIGLMMEEMIFNLADTHLFFNDLEDCDQIHVDDVSSDDNGQDLSTYNFSADGFHSSAPGANLCLGSGVHGGVDWMRKLAFRYRRVKEMYNTYKNNVGGLIGTPKRETWLQLRAELEALTDLWLTHSLKALNLINSRPNCVNVLVTTTQLIPALAKVLLYGLGSVFPIENIYSATKTGKESCFERIMQRFGRKAVYVVIGDGVEEEQGAKKHNMPFWRISCHADLEALRHALELEYL | – | in vitro dephosphorylation of immunoprecipitated Flag-ERβ, pY36 immunoblot [4]: recombinant WT, but not mutant EYA2 completely eliminated the pY36 signal of ERβ in vitro; in vitro tyrosine phosphatase assay (release of free phosphate, Malachite Green) [5]: A pY36-containing ERβ peptide that can be dephosphorylated efficiently by recombinant WT-EYA2 |
| binds | Flag-ERβ (WT) (receptor, phosphotyrosine at 36 (pY36), as phosphorylated in HEK293T cells, Expressed in HEK293T cells and immunoprecipitated by the Flag tag; also called WT-ERβ; Flag-tagged WT ERβ; not shown: Flag tag) MDIKNSPSSLNSPSSYNCSQSILPLEHGSIYIPSSYVDSHHEYPAMTFYSPAVMNYSIPSNVTNLEGGPGRQTTSPNVLWPTPGHLSPLVVHRQLSHLYAEPQKSPWCEARSLEHTLPVNRETLKRKVSGNRCASPVTGPGSKRDAHFCAVCSDYASGYHYGVWSCEGCKAFFKRSIQGHNDYICPATNQCTIDKNRRKSCQACRLRKCYEVGMVKCGSRRERCGYRLVRRQRSADEQLHCAGKAKRSGGHAPRVRELLLDALSPEQLVLTLLEAEPPHVLISRPSAPFTEASMMMSLTKLADKELVHMISWAKKIPGFVELSLFDQVRLLESCWMEVLMMGLMWRSIDHPGKLIFAPDLVLDRDEGKCVEGILEIFDMLLATTSRFRELKLQHKEYLCVKAMILLNSSMYPLVTATQDADSSRKLAHLLNAVTDALVWVIAKSGISSQQQSMRLANLLMLLSHVRHASNKGMEHLLNMKCKNVVPVYDLLLEMLNAHVLRGCKSSITGSECSPAEDSKSKEGSQNPQSQ | – | – |
| binds | Flag-ERβ Y36E (receptor, Expressed in HEK293T cells; also called Y36E-ERβ; Y36E mutant; not shown: Flag tag) MDIKNSPSSLNSPSSYNCSQSILPLEHGSIYIPSSEVDSHHEYPAMTFYSPAVMNYSIPSNVTNLEGGPGRQTTSPNVLWPTPGHLSPLVVHRQLSHLYAEPQKSPWCEARSLEHTLPVNRETLKRKVSGNRCASPVTGPGSKRDAHFCAVCSDYASGYHYGVWSCEGCKAFFKRSIQGHNDYICPATNQCTIDKNRRKSCQACRLRKCYEVGMVKCGSRRERCGYRLVRRQRSADEQLHCAGKAKRSGGHAPRVRELLLDALSPEQLVLTLLEAEPPHVLISRPSAPFTEASMMMSLTKLADKELVHMISWAKKIPGFVELSLFDQVRLLESCWMEVLMMGLMWRSIDHPGKLIFAPDLVLDRDEGKCVEGILEIFDMLLATTSRFRELKLQHKEYLCVKAMILLNSSMYPLVTATQDADSSRKLAHLLNAVTDALVWVIAKSGISSQQQSMRLANLLMLLSHVRHASNKGMEHLLNMKCKNVVPVYDLLLEMLNAHVLRGCKSSITGSECSPAEDSKSKEGSQNPQSQ | – | – |
